# Patent US10371695B2, “Identifying compounds modifying a cellular phenotype” (2cureX ApS, priority 2014, dated 2019)
# How the values were obtained:
# [1] = test system: micro-tumors (spheroids) from patient tumor tissue; test: Chemo-sensitivity screening of compounds distributed in Matrigel on patient micro-tumors (growth by imaged area); assay type: cell-based, human; details: for cancer cell proliferation (spheroid/micro-tumour growth) inhibition: increasing concentrations, inhibited = spheroid grown to less than 1.5x original size after 7 days at least at highest concentrations tested
# Description: Materials and Solutions: • Support: Matrigel® available from BD Biosciences. • Arrays: Micro slide format arrays with 96 individual wells surrounded by a common reservoir.
# Compounds, Matrigel® and arrays are kept at 5° C. (cooling device) throughout the process when not in the freezer. • 1. Compounds were diluted in Matrigel® (Fluid) as single compounds and/or in combinations equal to standard treatment regimens of patients with colorectal cancer. • 2. Matrigel® with compounds were added to individual wells of the arrays (Fluid) • 3. Arrays were centrifuged 10 min at 3000 RPM (cold) • 4. Arrays were stored at −18° C. (Solid)—ready for use
# (§1) Materials and Solutions: • Array prepared as described in Example 1 • STEM media: DMEM/F12 w. 15% Hepes (Gibco 11330-032), StemPro hESC SFM growth supplement (50×):1× • BSA 25%, Gibco A10008-01: 1.8%, FGF-basic (10 ug/ml): 8 ng/ml, 2-Mercaptoethanol Gibco 21985 (55 mM): 0.1 mM, Penicillin/streptomycin 200 U/ml/200 ug/ml (=2× usual conc.), Gentamycin Sigma G1272: 1:100 (=2× usual conc.), Amphotericin (fungicide): 1:100 (=1× usual conc.), Hepes 15 mM • Cooling device for keeping 5° C. • Incubator, 37° C. (CO2, 99% humidity for cell culture)
# Procedure: • 1. Tumor tissue from patient was prepared to form a population of small individual micro-tumors (spheroids) • 2. Micro-tumors were suspended in cold STEM media • 3. The array was taken directly from freezer and placed on the cooling device (solid) • 4. 3 ml micro tumor suspension was added to the reservoir of the array and the array was left for 7 min. to allow cells to distribute and settle into individual wells of the array • 5. STEM media was gently removed from reservoir—leaving the micro tumors in the wells • 6. The array was moved to refrigerator (5° C.) and left for 30 min to allow Matrigel® to liquefy and the cells to settle at the bottom of the array (fluid) • 7. Hereafter the array was incubated at 37° C. for 1 hr. to allow the Matrigel® to solidify and entrap the cells in a certain position (solid) • 8. The array with micro-tumors positioned at the bottom was imaged at an automated microscope • 9. Images were acquired every day for 10 days and micro-tumor growth (and inhibition of growth) was measured by quantifying the area of the micro-tumors.
# In general cancer cell proliferation as evidenced by spheroid (micro-tumour) growth was considered inhibited if the spheroid had grown to less than 1.5× the original size after 7 days of incubation at least at the highest concentrations tested.
# [2] = test system: micro-tumors (spheroids) from patient tumor tissue; test: Screening of compounds imbedded in thermo sensitive nano-particles distributed in Matrigel on patient micro-tumors; assay type: cell-based, human; details: FIG. 4; images at day 0, 3, 5 and 7; compound released from nano-particles at 42° C.
# Description: Materials and Solutions: • Nano-particles containing chemo therapeutic compounds • Support: Matrigel® available from BD Biosciences, • Arrays: Micro slide format array with 96 individual wells surrounded by a common reservoir as described in Example 1 • Cooling device for keeping 5° C.
# Nano-particles, Matrigel® and arrays were kept at 5° C. (cooling block) throughout the process when not in the freezer. • 1. Compound containing nano-particles were diluted in Matrigel® (fluid). • 2. Matrigel containing the nano-particles (from above point 1) were added to individual wells of the array • 3. The arrays were centrifuged 10 min at 3000 RPM (cold) • 4. The arrays were stored at −18° C. for 24 hrs. (solid)
# as §1, with “prepared accordingly to” for “prepared as described in”, “Example 2” for “Example 1”, “•” for “• Cooling device for keeping 5° C. •”, “C. […]” for “C. (CO2, 99% humidity for cell culture)”
# Procedure: • 1. […] Images were acquired every day for 10 days and micro-tumor growth (and inhibition of growth) was measured by quantifying the area of the micro-tumors.
Structure (SMILES),"cancer cell proliferation (spheroid/micro-tumour growth) inhibition ([1]; patient 1, FIG. 2a)","cancer cell proliferation (spheroid/micro-tumour growth) inhibition ([1]; patient 2, FIG. 2a)","time trace of micro-tumour (spheroid) growth, cancer cell proliferation ([1]; FIG. 3, presence or absence of compound)","micro-tumour growth, proliferation of cancer cells [2]"
CCc1c2c(nc3ccc(O)cc13)-c1cc3c(c(=O)n1C2)COC(=O)[C@]3(O)CC [SN38],inhibited,inhibited,,
CCc1c2c(nc3ccc(OC(=O)N4CCC(N5CCCCC5)CC4)cc13)-c1cc3c(c(=O)n1C2)COC(=O)[C@]3(O)CC [Irinotecan],,,clearly inhibited cancer cell proliferation,inhibits proliferation
O=C1[O][Pt]2([NH][C@@H]3CCCC[C@H]3[NH]2)[O]C1=O [Oxaliplatin],,inhibited,,
O=c1[nH]cc(F)c(=O)[nH]1 [5FU],inhibited,inhibited,,
